Measurements published in patent US20090018134A1, “Compounds - 945” (AstraZeneca AB, priority 2007, published 2009).

These molecules were tested against T1, mTOR (Homo sapiens, UniProt P42345) (assay: In Vitro mTOR Kinase Assay (Echo), Test (a)(ii)). Conditions: table of enzyme assay Test (a)(ii); read-out: Test (a)(ii) IC50.
T1 construct: FLAG; made in house
T1 sequence (P42345 1362-2549): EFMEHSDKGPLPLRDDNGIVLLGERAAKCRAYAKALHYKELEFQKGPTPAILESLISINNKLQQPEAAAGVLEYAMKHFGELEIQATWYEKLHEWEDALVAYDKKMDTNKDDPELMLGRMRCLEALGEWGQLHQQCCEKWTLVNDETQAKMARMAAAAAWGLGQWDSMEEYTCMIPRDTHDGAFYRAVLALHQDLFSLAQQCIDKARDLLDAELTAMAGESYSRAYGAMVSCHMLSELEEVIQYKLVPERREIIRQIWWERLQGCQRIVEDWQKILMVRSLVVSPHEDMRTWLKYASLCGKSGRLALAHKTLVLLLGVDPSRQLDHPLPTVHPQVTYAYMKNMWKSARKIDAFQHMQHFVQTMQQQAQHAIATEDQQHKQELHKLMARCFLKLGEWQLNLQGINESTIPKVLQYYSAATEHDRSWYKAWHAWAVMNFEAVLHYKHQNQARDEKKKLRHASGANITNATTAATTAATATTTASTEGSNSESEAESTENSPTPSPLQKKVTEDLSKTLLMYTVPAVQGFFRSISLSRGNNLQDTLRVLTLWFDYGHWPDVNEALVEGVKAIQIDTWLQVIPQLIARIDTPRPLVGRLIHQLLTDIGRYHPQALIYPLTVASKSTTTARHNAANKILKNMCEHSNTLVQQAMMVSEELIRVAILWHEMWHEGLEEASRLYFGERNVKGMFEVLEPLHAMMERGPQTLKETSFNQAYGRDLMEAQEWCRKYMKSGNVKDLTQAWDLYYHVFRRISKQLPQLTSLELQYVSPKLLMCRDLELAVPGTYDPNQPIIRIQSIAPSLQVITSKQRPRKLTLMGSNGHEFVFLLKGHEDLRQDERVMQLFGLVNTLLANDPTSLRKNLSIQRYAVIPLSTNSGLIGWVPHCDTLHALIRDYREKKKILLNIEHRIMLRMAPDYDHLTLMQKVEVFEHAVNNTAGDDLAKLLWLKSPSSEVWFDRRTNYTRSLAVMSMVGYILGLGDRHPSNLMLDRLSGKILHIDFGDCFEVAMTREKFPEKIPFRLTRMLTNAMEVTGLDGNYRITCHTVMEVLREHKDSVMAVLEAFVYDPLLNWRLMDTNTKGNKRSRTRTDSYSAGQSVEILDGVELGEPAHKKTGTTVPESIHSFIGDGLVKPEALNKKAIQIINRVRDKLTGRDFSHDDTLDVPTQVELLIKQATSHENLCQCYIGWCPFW
Type: biochemical
Procedure, shortened: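 FLAG-tagged truncated mTOR (residues 1362-2549), expressed in HEK293 and purified via the FLAG tag, phosphorylated a biotinylated peptide over 2 hours at room temperature. EDTA stopped the reaction. Phospho-T389 was detected overnight by AlphaScreen using the p70 S6K T389 antibody with Protein A/streptavidin beads; IC50 reported.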
Molecule `CNC(=O)Nc1ccc(-c2nc(N3CCOC[C@@H]3C)cc(C3(S(=O)(=O)c4cc(F)ccc4C)CC3)n2)cc1` [Example 61, 1-[4-[4-[1-(5-Fluoro-2-methylphenyl)sulfonylcyclopropyl]-6-[(3S)-3-methylmorpholin-4-yl]pyrimidin-2-yl]phenyl]-3-methylurea] has an IC50 of 26.9 nM.
In the case of `Cc1ccc(F)cc1S(=O)(=O)C1(c2cc(N3CCOC[C@@H]3C)nc(-c3ccc(NC(=O)NC4CC4)cc3)n2)CC1` [Example 61a, 3-cyclopropyl-1-[4-[4-[1-(5-fluoro-2-methylphenyl)sulfonylcyclopropyl]-6-[(3S)-3-methylmorphohn-4-yl]pyrimidin-2-yl]phenyl]urea], the IC50 is reported as 32.6 nM.
In the case of `Cc1ccc(F)cc1S(=O)(=O)C1(c2cc(N3CCOC[C@@H]3C)nc(-c3ccc(NC(=O)NCCO)cc3)n2)CC1` [Example 61b, 1-[4-[4-[1-(5-fluoro-2-methylphenyl)sulfonylcyclopropyl]-6-[(3S)-3-methylmorpholin-4-yl]pyrimidin-2-yl]phenyl]-3-(2-hydroxyethyl)urea], the IC50 is reported as 13.6 nM.
Work on `Cc1ccc(F)cc1S(=O)(=O)C1(c2cc(N3CCOC[C@@H]3C)nc(-c3ccc(NC(=O)NCCF)cc3)n2)CC1` [Example 61c, 3-(2-fluoroethyl)-1-[4-[4-[1-(5-fluoro-2-methylphenyl)sulfonylcyclopropyl]-6-[(3S)-3-methylmorpholin-4-yl]pyrimidin-2-yl]phenyl]urea] yielded an IC50 of 21.1 nM.
Molecule `Cc1ccc(F)cc1S(=O)(=O)C1(c2cc(N3CCOC[C@@H]3C)nc(-c3ccc(NC(=O)NCC(F)F)cc3)n2)CC1` [Example 61d, 3-(2,2-difluoroethyl)-1-[4-[4-[1-(5-fluoro-2-methylphenyl)sulfonylcyclopropyl]-6-[(3S)-3-methylmorphohn-4-yl]pyrimidin-2-yl]phenyl]urea] has an IC50 of 43.8 nM.
`CCNC(=O)Nc1ccc(-c2nc(N3CCOC[C@@H]3C)cc(C3(S(=O)(=O)c4cc(F)ccc4C)CC3)n2)cc1` [Example 61e, 1-ethyl-3-[4-[4-[1-(5-fluoro-2-methylphenyl)sulfonylcyclopropyl]-6-[(3S)-3-methylmorpholin-4-yl]pyrimidin-2-yl]phenyl]urea] was tested, and the IC50 was 23.7 nM.
`Cc1ccc(F)cc1S(=O)(=O)C1(c2cc(N3CCOC[C@@H]3C)nc(-c3ccc(NC(=O)Nc4cnn(C)c4)cc3)n2)CC1` [Example 61f, 1-[4-[4-[1-(5-fluoro-2-methylphenyl)sulfonylcyclopropyl]-6-[(3S)-3-methylmorpholin-4-yl]pyrimidin-2-yl]phenyl]-3-(1-methylpyrazol-4-yl)urea] showed an IC50 of 32.8 nM.
`C[C@H]1COCCN1c1cc(C2(S(C)(=O)=O)CCC2)nc(-c2ccc(NC(=S)NCCO)cc2)n1` [Example 62, 3-(2-Hydroxyethyl)-1-[4-[4-[(3S)-3-methylmorpholin-4-yl]-6-(1-methylsulfonylcyclobutyl)pyrimidin-2-yl]phenyl]thiourea] showed an IC50 of 2.05 nM.
Molecule `C[C@H]1COCCN1c1cc(C2(S(C)(=O)=O)CCC2)nc(-c2ccc(NC(=S)NCc3ncc[nH]3)cc2)n1` [Example 62a, 3-(1H-imidazol-2-ylmethyl)-1-[4-[4-[(3S)-3-methylmorpholin-4-yl]-6-(1-methylsulfonylcyclobutyl)pyrimi-din-2-yl]phenyl]thiourea] has an IC50 of 39.3 nM.
`C[C@@H](CO)NC(=S)Nc1ccc(-c2nc(N3CCOC[C@@H]3C)cc(C3(S(C)(=O)=O)CCC3)n2)cc1` [Example 62b, 3-[(2S)-1-hydroxypropan-2-yl]-1-[4-[4-[(3S)-3-methylmorpholin-4-yl]-6-(1-methylsulfonylcyclobutyl)pyrimi-din-2-yl]phenyl]thiourea] was tested, and the IC50 was 5.46 nM.
Work on `C[C@H](CO)NC(=S)Nc1ccc(-c2nc(N3CCOC[C@@H]3C)cc(C3(S(C)(=O)=O)CCC3)n2)cc1` [Example 62c, 3-[(2R)-1-hydroxypropan-2-yl]-1-[4-[4-[(3S)-3-methylmorpholin-4-yl]-6-(1-methylsulfonylcyclobutyl)pyrimi-din-2-yl]phenyl]thiourea] yielded an IC50 of 37.5 nM.
Work on `C[C@H]1COCCN1c1cc(C2(S(C)(=O)=O)CCC2)nc(-c2ccc(NC(=S)NCCCO)cc2)n1` [Example 62d, 3-(3-hydroxypropyl)-1-[4-[4-[(3S)-3-methylmorpholin-4-yl]-6-(1-methylsulfonylcyclobutyl)pyrimi-din-2-yl]phenyl]thiourea] yielded an IC50 of 22 nM.
`C[C@H]1COCCN1c1cc(C2(S(=O)(=O)c3ccncc3)CCC2)nc(-c2ccc(NC(=S)NCc3ncc[nH]3)cc2)n1` [Example 63, 3-(1H-Imidazol-2-ylmethyl)-1-[4-[4-[(3S)-3-methylmorpholin-4-yl]-6-(1-pyridin-4-ylsulfonylcyclobutyl)pyrimidin-2-yl]phenyl]thiourea] showed an IC50 of 72.5 nM.
In the case of `C[C@H]1COCCN1c1cc(C2(S(=O)(=O)c3ccc(OC(F)F)cc3)CC2)nc(-c2ccc(NC(=O)NC3CC3)cc2)n1` [Example 64, 3-Cyclopropyl-1-[4-[4-[1-[4-(difluoromethoxy)phenyl]sulfonylcyclopropyl]-6-[(3 S)-3-methylmorpholin-4-yl]pyrimidin-2-yl]phenyl]urea], the IC50 is reported as 7.85 nM.
Work on `CNC(=O)Nc1ccc(-c2nc(N3CCOC[C@@H]3C)cc(C3(S(=O)(=O)c4ccc(OC(F)F)cc4)CC3)n2)cc1` [Example 64a, 1-[4-[4-[1-[4-(difluoromethoxy)phenyl]sulfonyl-cyclopropyl]-6-[(3S)-3-methylmorpholin-4-yl]pyrimidin-2-yl]phenyl]-3-methylurea] yielded an IC50 of 5.2 nM.
`C[C@H]1COCCN1c1cc(C2(S(C)(=O)=O)CC2)nc(-c2ccc(NC(=O)NCCF)cc2)n1` [Example 64aa, 3-(2-fluoroethyl)-1-[4-[4-[(3S)-3-methylmorpholin-4-yl]-6-(1-methylsulfonylcyclopropyl)pyrimi-din-2-yl]phenyl]urea] gave an IC50 of 3.88 nM.
Molecule `C[C@H]1COCCN1c1cc(C2(S(C)(=O)=O)CC2)nc(-c2ccc(NC(=O)NCC(F)F)cc2)n1` [Example 64ab, 3-(2,2-difluoroethyl)-1-[4-[4-[(3S)-methylsulfonylcyclopropyl)pyrimi-din-2-yl]phenyl]urea] has an IC50 of 9.4 nM.
`Cc1csc(S(=O)(=O)C2(c3cc(N4CCOC[C@@H]4C)nc(-c4ccc(NC(=O)N[C@@H](C)CO)cc4)n3)CC2)n1` [Example 64ac, 3-[(2S)-1-hydroxypropan-2-yl]-1-[4-[4-[(3S)-3-methylmorpholin-4-yl]-6-[1-[(4-methyl-1,3-thiazol-2-yl)sulfonyl]cyclopropyl]pyrimidin-2-yl]phenyl]urea] showed an IC50 of 5.29 nM.
With `Cc1csc(S(=O)(=O)C2(c3cc(N4CCOC[C@@H]4C)nc(-c4ccc(NC(=O)NCCF)cc4)n3)CC2)n1` [Example 64ae, 3-(2-fluoroethyl)-1-[4-[4-[(3S)-3-methylmorpholin-4-yl]-6-[1-[(4-methyl-1,3-thiazol-2-yl)sulfonyl]cyclopropyl]pyrimidin-2-yl]phenyl]urea] the IC50 was 2.13 nM.
With `C[C@H]1COCCN1c1cc(C2(S(=O)(=O)c3ccccn3)CC2)nc(-c2ccc(NC(=O)NCC(F)F)cc2)n1` [Example 64af, 3-(2,2-difluoroethyl)-1-[4-[4-[(3S)-3-methylmorpholin-4-yl]-6-(1-pyridin-2-ylsulfonylcyclopropyl)pyrimidin-2-yl]phenyl]urea] the IC50 was 3.39 nM.
`C[C@H]1COCCN1c1cc(C2(S(=O)(=O)c3ccccn3)CC2)nc(-c2ccc(NC(=O)Nc3ccon3)cc2)n1` [Example 64ag, 1-[4-[4-[(3S)-3-methylmorpholin-4-yl]-6-(1-pyridin-2-ylsulfonylcyclopropyl)pyrimidin-2-yl]phenyl]-3-(1,2-oxazol-3-yl)urea] gave an IC50 of 2.81 nM.
Work on `C[C@H]1COCCN1c1cc(C2(S(=O)(=O)c3ccc(Cl)cc3)CC2)nc(-c2ccc(NC(=O)NCC(F)F)cc2)n1` [Example 64ah, 1-[4-[4-[1-(4-chlorophenyl)sulfonylcyclopropyl]-6-[(3S)-3-methylmorpholin-4-yl]pyrimidin-2-yl]phenyl]-3-(2,2-difluoroethyl)urea] yielded an IC50 of 6.84 nM.
`C[C@H]1COCCN1c1cc(C2(S(=O)(=O)c3ccc(Cl)cc3)CC2)nc(-c2ccc(NC(=O)Nc3ccon3)cc2)n1` [Example 64ai, 1-[4-[4-[1-(4-chlorophenyl)sulfonylcyclopropyl]-6-[(3S)-3-methylmorpholin-4-yl]pyrimidin-2-yl]phenyl]-3-(1,2-oxazol-3-yl)urea] gave an IC50 of 5.67 nM.
Molecule `C[C@H]1COCCN1c1cc(C2(S(=O)(=O)CCCO)CC2)nc(-c2ccc(NC(=O)NCCF)cc2)n1` [Example 64aj, 3-(2-fluoroethyl)-1-[4-[4-[1-(3-hydroxypropylsulfonyl)cyclopro-pyl]-6-[(3S)-3-methylmorpholin-4-yl]pyrimidin-2-yl]phenyl]urea] has an IC50 of 7.78 nM.
With `C[C@H]1COCCN1c1cc(C2(S(=O)(=O)CCCO)CC2)nc(-c2ccc(NC(=O)Nc3ccon3)cc2)n1` [Example 64ak, 1-[4-[4-[1-(3-hydroxypropylsulfonyl)cyclopro-pyl]-6-[(3S)-3-methylmorpholin-4-yl]pyrimidin-2-yl]phenyl]-3-(1,2-oxazol-3-yl)urea] the IC50 was 1.61 nM.
Molecule `C[C@H]1COCCN1c1cc(C2(S(=O)(=O)c3cnn(C(F)F)c3)CC2)nc(-c2ccc(NC(=O)NCCO)cc2)n1` [Example 64al, 1-[4-[4-[1-[1-(difluoromethyl)pyrazol-4-yl]sulfonylcyclopropyl]-6-[(3S)-3-methylmorpholin-4-yl]pyrimidin-2-yl]phenyl]-3-(2-hydroxyethyl)urea] has an IC50 of 5.58 nM.
Molecule `CCNC(=O)Nc1ccc(-c2nc(N3CCOC[C@@H]3C)cc(C3(S(=O)(=O)c4ccc(OC(F)F)cc4)CC3)n2)cc1` [Example 64b, 3-[4-[4-[1-[4-(difluoromethoxy)phenyl]sulfonyl-cyclopropyl]-6-[(3S)-3-methylmorpholin-4-yl]pyrimidin-2-yl]phenyl]-1-ethylurea] has an IC50 of 6.78 nM.
`C[C@H]1COCCN1c1cc(C2(S(=O)(=O)c3ccc(OC(F)F)cc3)CC2)nc(-c2ccc(NC(=O)NCCO)cc2)n1` [Example 64c, 1-[4-[4-[1-[4-(difluoromethoxy)phenyl]sulfonyl-cyclopropyl]-6-[(3S)-3-methylmorpholin-4-yl]pyrimidin-2-yl]phenyl]-3-(2-hydroxyethyl)urea] showed an IC50 of 2.15 nM.
